Results on two compounds are retold here after PMC8778818, “Synthesis, Structural Characterization and Anticancer Activity of New 5-Trifluoromethyl-2-thioxo-thiazolo[4,5-d]pyrimidine Derivatives” (Pharmaceuticals, 2022).

One experiment relates to C32. In words: MTT cell viability assay, C32. The experiment is classed as cell-based, human. As to conditions: Homo sapiens; C32, MTT, 72 h, mean ± SD. The procedure:
(§1) Twelve compounds (2a-e, 3a-d and 4a-c) at a concentration range of 50–5000 μM were tested for their antiproliferative potential against four human cancer cell lines (A375—melanotic melanoma, C32—amelanotic melanoma, DU145—prostate cancer androgen-independent, MCF-7/WT—breast adenocarcinoma) and two normal cell lines: Chinese Hamster Ovary (CHO-K1) and immortalized human keratinocytes from histologically normal skin (HaCaT).
(§2) To determine the antiproliferative activity of newly synthesized compounds, the following cell lines were used: human melanotic melanoma cell line (A375), human amelanotic melanoma cell line (C32), human breast adenocarcinoma cell line (MCF-7/WT), human prostate cancer androgen-independent (DU145) and two normal cell lines: hamster ovarian (CHO-K1) and immortalized human keratinocytes from histologically normal skin (HaCaT). The cells were obtained from the cell line bank of the Department of Molecular and Cellular Biology, Wroclaw Medical University. A375, C32, MCF-7/WT, DU145 and HaCaT cells were grown in a monolayer cultured in Dulbecco’s Modified Eagle’s Medium (DMEM, Sigma-Aldrich, Poznań, Poland), supplemented with 10% of fetal bovine serum (FBS, Gibco, Paisley, UK) and 1% of antibiotics (penicillin/streptomycin, Sigma-Aldrich) and CHO-K1 were grown in HAM’s F-12 medium (Sigma-Aldrich), supplemented with 10% fetal bovine serum (FBS, Gibco) and 1% of antibiotics (penicillin/streptomycin, Sigma-Aldrich). Cell lines were cultured in the polystyrene flasks 25 or 75 cm^2 (Thermo Fisher Scientific, Waltham, MA, USA), which were stored in 37 °C and 5% CO2 in a humidified 95% atmosphere (SteriCult, Thermo Scientific, Alab). The cell medium was exchanged twice a week. The exponentially growing cells were used throughout the experiments. The cells were rinsed with phosphate-buffered saline (PBS, Sigma-Aldrich) and trypsinized by Trypsin-EDTA 0.25% solution (Sigma-Aldrich).
(§3) The influence of the compounds was performed in a monolayer culture on cancer and normal cells. Compounds were initially dissolved in DMSO; further dilutions of the compound were performed in Dulbecco’s Modified Eagle’s Medium supplemented with 10% FBS. Compounds were tested in a 50–5000 µM concentration range. In the in vitro experiments, the concentrations of DMSO in the final solution of the compounds were used 0.05%; 0.1%; 0.5%; 1%, respectively.
(§4) Cell viability was determined using the MTT colorimetric assay. All cell lines were seeded into 96-well plates to a density of 3 × 10^4 cells/well. After 24 h, the culture supernatants were removed and appropriate dilutions of compounds in the culture medium (200 µL/well) were added to the cells’ monolayer cultures and incubated for an additional 72 h. After 72 h of exposition to the compounds and the removal of the culture medium, cell viability was determined by reducing the yellow dye 3-(4,5-dimethyl-2-thiazol)-2,5-diphenyl-2H-tetrazolium bromide (MTT assay, Sigma Saint Louis, MO, USA; In Vitro Toxicology Assay) to a blue formazan product. The absorbance of the resulting solutions in three duplicate experiments was measured at the wavelength of 560 nm in a microplate reader (EnSpire, Perkin Elmer, Kraków, Poland). MTT assay is a colorimetric method that estimates the rate of metabolism in viable cells. Absorbance is directly proportional to the number of viable cells. All the experiments were performed three times and the mean absorbance values were calculated. The methodology for the evaluation of the growth of human cancer and normal cells was described previously. The cell viability in each group was expressed as a percentage of control (untreated) cells.

The subject of another experiment is MCF-7/WT. In words: MTT cell viability assay, MCF-7/WT. The format is cell-based. As to conditions: Homo sapiens, MCF7, 72 h, mean ± SD. How it is done: as §1, §2, §3, §4
Experiment [1] concerns 60 human cancer cell lines. The experiment in a line: NCI-60 anticancer screen, full panel. The experiment is classed as cell-based. To be noted: 10^−5 M one dose; for Mean Growth %: mean over the panel.
A further experiment concerns RPMI-8226. In words: NCI-60 screen, Leukemia RPMI-8226. The format is cell-based, human. As to conditions: RPMI-8226, 10^−5 M one dose.
A further experiment relates to SR. In words: NCI-60 screen, Leukemia SR. The experiment is classed as cell-based, human. To be noted: 10^−5 M one dose.
In a further experiment the test system is HOP-92. In words: NCI-60 screen, Non-Small Cell Lung Cancer HOP-92. The format is cell-based, human. As to conditions: HOP-92, 10^−5 M one dose.
Another experiment has as its system NCI-H226. The experiment in a line: NCI-60 screen, Non-Small Cell Lung Cancer NCI-H226. To be noted: NCI-H226, 10^−5 M one dose. The format is cell-based, human.
In another experiment the test system is NCI-H460. In words: NCI-60 screen, Non-Small Cell Lung Cancer NCI-H460. To be noted: NCI-H460, 10^−5 M one dose. The format is cell-based, human.
The test system of the next experiment is SF-268. In words: NCI-60 screen, CNS Cancer SF-268. The experiment is classed as cell-based, human. To be noted: SF-268, 10^−5 M one dose.
The next experiment relates to SNB-75. The experiment in a line: NCI-60 screen, CNS Cancer SNB-75. The format is cell-based, human. As to conditions: SNB-75, 10^−5 M one dose.
The subject of another experiment is UACC-257. In words: NCI-60 screen, Melanoma UACC-257. As to conditions: UACC-257, 10^−5 M one dose. The format is cell-based.
In another experiment the test system is OVCAR-3. The experiment in a line: NCI-60 screen, Ovarian Cancer OVCAR-3. The format is cell-based, human. To be noted: OVCAR-3, 10^−5 M one dose.
The subject of another experiment is OVCAR-8. The experiment in a line: NCI-60 screen, Ovarian Cancer OVCAR-8. To be noted: OVCAR-8, 10^−5 M one dose. The experiment is classed as cell-based, human.
The test system of another experiment is NCI/ADR-RES. In words: NCI-60 screen, Ovarian Cancer NCI/ADR-RES. The format is cell-based, human. To be noted: 10^−5 M one dose.
For a further experiment, the system named is 786-0. The experiment in a line: NCI-60 screen, Renal Cancer 786-0. The experiment is classed as cell-based. To be noted: 786-0, 10^−5 M one dose.
The subject of another experiment is CAKI-1. The experiment in a line: NCI-60 screen, Renal Cancer CAKI-1. The experiment is classed as cell-based, human. To be noted: CAKI-1, 10^−5 M one dose.
For another experiment, the system named is PC-3. In words: NCI-60 screen, Prostate C. PC-3. The format is cell-based. As to conditions: PC-3, 10^−5 M one dose.
The next experiment relates to MDA-MB-231/ATCC. The experiment in a line: NCI-60 screen, Breast Cancer MDA-MB-231/ATCC. As to conditions: MDA-MB-231/ATCC, 10^−5 M one dose. The format is cell-based.
A further experiment deals with HOP-62. The experiment in a line: NCI-60 screen, Non-Small Cell Lung Cancer HOP-62. The experiment is classed as cell-based. As to conditions: HOP-62, 10^−5 M one dose.
The test system of another experiment is SK-MEL-5. In words: NCI-60 screen, Melanoma SK-MEL-5. The format is cell-based, human. To be noted: SK-MEL-5, 10^−5 M one dose.

Molecules are shown by their SMILES. Entries after “also recorded” stand apart in the source; their conditions may differ.

Regarding `O=c1[nH]c(C(F)(F)F)nc2c1sc(=S)n2-c1ccccc1` [Compound 2b, 3-phenyl-2-thioxo-5-(trifluoromethyl)-2,3-dihydro[1, 3]thiazolo[4,5-d]pyrimidin-7(6H)-one], the 50% inhibitory concentration (IC50) in the experiment with C32 is 496 ± 20.4 µM; in the experiment with MCF-7/WT, 557 ± 22.9 µM. The “activity in the one-dose assay (in words)” value in experiment [1] is “insufficient activity”. Also, the “Mean Growth %” value in experiment [1] came out at 103.88%. Besides, the “Growth of Cells (%)” value was 108.14% with RPMI-8226; 105.93% in the experiment with SR; 97.54% in the experiment with HOP-92; 103.60% with NCI-H226; 123.50% with NCI-H460; 101.77% in the experiment with SF-268. Also, the “Growth of Cells (%)” value in the experiment with SNB-75 was 91.21%; in the experiment on UACC-257, 107.08%; with OVCAR-3, 110.35%; with OVCAR-8, 103.45%; with NCI/ADR-RES, 25.77%; with 786-0 it was 104.97%. For the same compound, the “Growth of Cells (%)” value in the experiment with CAKI-1 was 124.11%; in the experiment with PC-3 it was 100.88%; in the experiment on MDA-MB-231/ATCC, 107.13%.

Take `CCNc1nc(C(F)(F)F)nc2c1sc(=S)n2-c1ccccc1` [Compound 4b, 7-(ethylamino)-3-phenyl-5-(trifluoromethyl)[1, 3]thiazolo[4,5-d]pyrimidine-2(3H)-thione]: the 50% inhibitory concentration (IC50) stood at 356 ± 15.2 µM in the experiment on C32 and 686 ± 29.3 µM with MCF-7/WT. In addition, the “activity in the one-dose assay (in words)” value in experiment [1] is “insufficient activity; also recorded: inactive”. For the same compound, the “Mean Growth %” value in experiment [1] was 96.94%. Moreover, the “Growth of Cells (%)” value in the experiment on SR is 83.46%; in the experiment with HOP-62 it was 86.06%; in the experiment on NCI-H226 it was 88.51%; in the experiment with NCI-H460, 100.34%; with SF-268, 104.72%; in the experiment with SNB-75, 99.24%. For the same compound, the “Growth of Cells (%)” value in the experiment on SK-MEL-5 is given as 87.63%; with UACC-257, 98.66%; in the experiment on OVCAR-3, 106.99%; with OVCAR-8, 96.11%; in the experiment with NCI/ADR-RES, 92.88%; in the experiment with 786-0, 101.39%. The “Growth of Cells (%)” value in the experiment on CAKI-1 turned out to be 93.63%; in the experiment on MDA-MB-231/ATCC it was 85.06%.
